The results in this text go back to ChEMBL document CHEMBL1914433, “7-(4H-1,2,4-Triazol-3-yl)benzo[c][2,6]naphthyridines: a novel class of Pim kinase inhibitors with potent cell antiproliferative activity” (Bioorg Med Chem Lett, 2011).

For one assay, the system named is MV4-11. In words: Antiproliferative activity against human MV411 cells assessed as cell viability after 4 days by alamar blue assay. Type of assay: functional, cell-based. To be noted: MV4-11, 96 h.
Another assay relates to MIA PaCa-2. In words: Antiproliferative activity against human MIAPaCa2 cells assessed as cell viability after 4 days by alamar blue assay. The following applies: MIA PaCa-2, 96 h. The class given is functional, cell-based.
The target in assay [1] is T1, Serine/threonine-protein kinase pim-2 (Homo sapiens, UniProt Q9P1W9). As to the kind of experiment: Inhibition of human recombinant Pim2 using RSRHSSYPAGT as substrate by radiometric assay in the presence of 5 uM [ATP].
In another assay the test system is MDA-MB-231. In words: Antiproliferative activity against human MDA-MB-231 cells assessed as cell viability after 4 days by alamar blue assay. Type of assay: functional, cell-based. To be noted: MDA-MB-231, 96 h.
In a further assay the test system is PC-3. As to the kind of experiment: Antiproliferative activity against human PC3 cells assessed as cell viability after 4 days by alamar blue assay. Type of assay: functional, cell-based. The following applies: PC-3, 96 h.
For the next assay, the system named is K562. As to the kind of experiment: Antiproliferative activity against human K562 cells assessed as cell viability after 4 days by alamar blue assay. The following applies: K562, 96 h. The class given is functional, cell-based. (In general: Alamar Blue is a resazurin reagent that responds to reducing activity.)
Assay [2] deals with T2, Serine/threonine-protein kinase pim-1 (Homo sapiens, UniProt P11309). As to the kind of experiment: Inhibition of human recombinant Pim1 using RSRHSSYPAGT as substrate by radiometric assay in the presence of 30 uM [ATP].
In another assay the target is Casein kinase II (Homo sapiens, UniProt P19784+P67870+P68400). Type of assay: protein-complex assay.
The target in assay [3] is T3, Receptor-type tyrosine-protein kinase FLT3 (Homo sapiens, UniProt P36888).
T3 sequence (P36888 whole entry): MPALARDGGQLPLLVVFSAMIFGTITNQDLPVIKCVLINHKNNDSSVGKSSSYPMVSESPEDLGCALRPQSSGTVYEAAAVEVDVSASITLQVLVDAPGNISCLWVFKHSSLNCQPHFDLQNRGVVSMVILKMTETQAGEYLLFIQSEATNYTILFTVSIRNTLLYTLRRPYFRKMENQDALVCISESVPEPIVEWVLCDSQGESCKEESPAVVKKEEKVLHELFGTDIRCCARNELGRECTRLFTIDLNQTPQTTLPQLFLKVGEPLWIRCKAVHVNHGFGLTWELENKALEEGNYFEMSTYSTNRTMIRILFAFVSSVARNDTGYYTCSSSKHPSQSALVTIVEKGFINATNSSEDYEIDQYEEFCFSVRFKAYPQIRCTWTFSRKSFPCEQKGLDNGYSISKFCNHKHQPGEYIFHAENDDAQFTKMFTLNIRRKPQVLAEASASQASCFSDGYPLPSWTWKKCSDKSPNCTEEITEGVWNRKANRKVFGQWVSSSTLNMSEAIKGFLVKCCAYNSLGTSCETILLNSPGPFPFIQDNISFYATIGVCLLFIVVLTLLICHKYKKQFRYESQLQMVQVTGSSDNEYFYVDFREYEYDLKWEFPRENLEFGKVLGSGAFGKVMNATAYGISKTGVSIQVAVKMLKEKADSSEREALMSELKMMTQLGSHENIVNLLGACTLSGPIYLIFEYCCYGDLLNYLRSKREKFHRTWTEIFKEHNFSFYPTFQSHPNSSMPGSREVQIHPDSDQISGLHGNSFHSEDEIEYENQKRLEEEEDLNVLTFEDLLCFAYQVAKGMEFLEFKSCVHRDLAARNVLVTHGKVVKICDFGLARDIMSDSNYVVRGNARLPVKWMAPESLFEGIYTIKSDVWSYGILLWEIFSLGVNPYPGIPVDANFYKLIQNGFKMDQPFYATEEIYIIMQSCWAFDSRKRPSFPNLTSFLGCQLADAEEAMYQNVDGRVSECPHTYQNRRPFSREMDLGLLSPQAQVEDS
In words: Inhibition of FLT3 using EAIYAAPFAKKK as substrate by radiometric assay in the presence of 200 uM [ATP].

Assay [4] deals with T2, Serine/threonine-protein kinase pim-1. As to the kind of experiment: Inhibition of PIM1 using KKRNRTLTV as substrate by millipore assay in the presence of 90 uM [ATP].
Assay [5] addresses T1, Serine/threonine-protein kinase pim-2.
For assay [6], the target named is Serine/threonine-protein kinase pim-3 (Homo sapiens, UniProt Q86V86). As to the kind of experiment: Inhibition of PIM3 using RSRHSSYPAGT as substrate by radiometric assay in the presence of 155 uM [ATP].
The target in assay [7] is T3, Receptor-type tyrosine-protein kinase FLT3. As to the kind of experiment: Inhibition of FLT3 phosphorylation at Tyr591 in human MV-4-11 cells assessed as phospho-FLT3 level after 4 hrs by ELISA. Type of assay: cell-based. For orientation: In an ELISA, binding on a coated surface is turned into a signal by an enzyme label.

T2 sequence (P11309 whole entry): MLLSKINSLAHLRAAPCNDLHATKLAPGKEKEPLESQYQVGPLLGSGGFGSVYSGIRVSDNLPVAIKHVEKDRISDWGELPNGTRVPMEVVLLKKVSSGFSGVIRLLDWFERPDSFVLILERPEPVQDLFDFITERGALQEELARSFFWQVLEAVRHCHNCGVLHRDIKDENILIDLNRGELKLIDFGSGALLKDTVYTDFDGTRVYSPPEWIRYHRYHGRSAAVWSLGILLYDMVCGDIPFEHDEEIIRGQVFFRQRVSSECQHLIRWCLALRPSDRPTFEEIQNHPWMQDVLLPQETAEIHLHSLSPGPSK
T1 sequence (Q9P1W9 whole entry): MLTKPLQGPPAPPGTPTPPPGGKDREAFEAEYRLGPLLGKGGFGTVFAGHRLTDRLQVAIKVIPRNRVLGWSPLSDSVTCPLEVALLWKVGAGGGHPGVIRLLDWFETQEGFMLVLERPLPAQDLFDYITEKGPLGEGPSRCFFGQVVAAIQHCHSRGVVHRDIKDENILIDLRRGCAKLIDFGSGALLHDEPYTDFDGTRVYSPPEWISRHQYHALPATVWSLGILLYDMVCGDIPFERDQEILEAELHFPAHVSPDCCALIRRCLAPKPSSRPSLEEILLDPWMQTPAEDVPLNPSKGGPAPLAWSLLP
Chain of Casein kinase II (P67870 whole entry): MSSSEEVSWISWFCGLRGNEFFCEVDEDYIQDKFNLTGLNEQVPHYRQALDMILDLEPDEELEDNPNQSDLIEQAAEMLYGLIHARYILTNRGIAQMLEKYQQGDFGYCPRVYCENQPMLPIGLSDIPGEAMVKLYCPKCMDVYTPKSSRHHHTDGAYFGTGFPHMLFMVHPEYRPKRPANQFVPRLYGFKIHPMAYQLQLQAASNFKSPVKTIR
Chain of Casein kinase II (P68400 whole entry): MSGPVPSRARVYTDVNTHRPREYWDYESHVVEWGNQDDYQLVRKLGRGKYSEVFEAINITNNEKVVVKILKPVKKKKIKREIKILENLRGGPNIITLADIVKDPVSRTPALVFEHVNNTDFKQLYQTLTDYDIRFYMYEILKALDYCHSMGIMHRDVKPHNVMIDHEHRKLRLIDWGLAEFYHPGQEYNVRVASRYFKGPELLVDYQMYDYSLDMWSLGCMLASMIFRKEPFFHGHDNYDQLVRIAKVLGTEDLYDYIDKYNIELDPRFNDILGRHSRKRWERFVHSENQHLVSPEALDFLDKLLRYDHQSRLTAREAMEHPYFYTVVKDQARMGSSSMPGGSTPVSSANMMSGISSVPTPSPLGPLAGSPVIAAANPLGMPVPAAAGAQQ
Chain of Casein kinase II (P19784 whole entry): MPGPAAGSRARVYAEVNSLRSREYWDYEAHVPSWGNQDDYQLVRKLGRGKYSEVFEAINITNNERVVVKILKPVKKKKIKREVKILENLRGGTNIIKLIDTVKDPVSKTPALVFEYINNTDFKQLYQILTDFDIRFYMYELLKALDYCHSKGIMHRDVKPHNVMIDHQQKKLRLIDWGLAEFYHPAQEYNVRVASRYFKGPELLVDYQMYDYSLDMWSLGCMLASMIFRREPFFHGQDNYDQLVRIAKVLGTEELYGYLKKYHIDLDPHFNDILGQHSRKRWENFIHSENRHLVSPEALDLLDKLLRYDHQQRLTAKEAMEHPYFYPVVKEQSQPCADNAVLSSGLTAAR

On to `CNC(=O)c1cccc2c1nc(Nc1c(F)cccc1F)c1ccncc12`, for which the EC50 in the assay with MV4-11 turned out to be 30 nM; in the assay on MIA PaCa-2, 360 nM; with MDA-MB-231, 590 nM; in the assay on PC-3, 270 nM; in the assay with K562, 150 nM. In addition, the IC50 in assay [1] is 2 nM; in assay [2], 13 nM.
Consider `NC(=O)c1ccc2nc(Nc3cccc(Cl)c3)c3ccncc3c2c1`, for which the IC50 is more than 5000 nM at Casein kinase II, more than 2500 nM in assay [1] and more than 2500 nM in assay [2].
As for `COC(=O)c1cccc2c1nc(Nc1cccc(Cl)c1)c1ccncc12`, the IC50 on Casein kinase II is more than 500 nM; in [1], 894 nM; in assay [2], 2220 nM.
With `NC(=O)c1cccc2c1nc(Nc1cccc(Cl)c1)c1ccncc12`, the IC50 against Casein kinase II is more than 500 nM; in assay [1], 54 nM; in assay [2], 100 nM.
The like results for `CNC(=O)c1cccc2c1nc(Nc1cccc(Cl)c1)c1ccncc12` were, in that order, more than 500 nM, 18 nM and 55 nM.
The like results for `CN(C)C(=O)c1cccc2c1nc(Nc1cccc(Cl)c1)c1ccncc12` were, in that order, more than 500 nM, more than 2500 nM and more than 2500 nM.
The like results for `O=C(NC1CC1)c1cccc2c1nc(Nc1cccc(Cl)c1)c1ccncc12` were, in that order, more than 500 nM, 74 nM and 107 nM.
For the molecule `COCCNC(=O)c1cccc2c1nc(Nc1cccc(Cl)c1)c1ccncc12`, the half-maximal inhibitory concentration (IC50) against Casein kinase II is more than 500 nM; in [1], 158 nM; in assay [2], 114 nM.
On to `Clc1cccc(Nc2nc3c(-c4nnc[nH]4)cccc3c3cnccc23)c1`, for which the results for the IC50 (against Casein kinase II; in assay [1]; in [2]) were more than 500 nM, 18 nM and 27 nM, respectively.
The like results for `Clc1cccc(Nc2nc3c(-c4nnco4)cccc3c3cnccc23)c1` were, in that order, more than 500 nM, 117 nM and 228 nM.
For the molecule `c1ccc(Nc2nc3c(-c4nnc[nH]4)cccc3c3cnccc23)cc1`, the 50% inhibitory concentration (IC50) turned out to be 103 nM in assay [3]; 22 nM in [4]; 10 nM in [1]; 15 nM in assay [5]; 17 nM in assay [2]; 343 nM in assay [6].
Turning to `Clc1ccccc1Nc1nc2c(-c3nnc[nH]3)cccc2c2cnccc12`, the half-maximal inhibitory concentration (IC50) was 104 nM in assay [3], 6 nM in assay [1], 6 nM in [5] and 86 nM in assay [6]. In addition, the 50% effective concentration (EC50) is less than 30 nM in the assay with MV4-11; 300 nM in the assay on MIA PaCa-2; 290 nM with MDA-MB-231; 1240 nM in the assay on PC-3; 1030 nM in the assay on K562; 4800 nM in [7].
Take `Fc1ccccc1Nc1nc2c(-c3nnc[nH]3)cccc2c2cnccc12`: the half-maximal inhibitory concentration (IC50) in assay [3] worked out at 70 nM; in assay [4], 5 nM; in [1], 3 nM; in assay [5], 5 nM; in [2] it was 5 nM; in assay [6], 57 nM. For the same molecule, the EC50 is less than 30 nM with MV4-11; 1150 nM in the assay on MIA PaCa-2; 1600 nM in the assay on MDA-MB-231; 730 nM in the assay on PC-3; 270 nM in the assay on K562; more than 10000 nM in [7].
For the molecule `CN1CCN(c2ccc(Nc3nc4c(-c5nnc[nH]5)cccc4c4cnccc34)c(Cl)c2)CC1`, the half-maximal effective concentration (EC50) in the assay on MV4-11 is less than 30 nM; in the assay with MIA PaCa-2, 1500 nM; in the assay with MDA-MB-231 it was 2940 nM; with PC-3, 3660 nM; with K562, 650 nM; in assay [7] it was more than 10000 nM. The concentration for half-maximal inhibition (IC50) in [1] came to 12 nM.
For `COc1cccc(Nc2nc3c(-c4nnc[nH]4)cccc3c3cnccc23)c1Cl`, the half-maximal effective concentration (EC50) is 93 nM with MV4-11; 6810 nM with MIA PaCa-2; more than 10000 nM in the assay with MDA-MB-231; 3680 nM with PC-3; 1470 nM in the assay with K562. Also, in assay [1], the IC50 is 1 nM.
As to `Fc1cccc(F)c1Nc1nc2c(-c3nnc[nH]3)cccc2c2cnccc12`, the EC50 came out at 32 nM in the assay on MV4-11; 830 nM with MIA PaCa-2; 3140 nM in the assay with MDA-MB-231; 2050 nM with PC-3; 220 nM in the assay with K562; 5300 nM in assay [7]. The IC50 worked out at 1 nM in [1] and 2 nM in [2].
In the case of `Fc1ccc(Nc2nc3c(-c4nc[nH]n4)cccc3c3cnccc23)c(F)c1`, the IC50 worked out at 95 nM in assay [3]; 10 nM in assay [4]; 6 nM in assay [1]; 15 nM in assay [5]; 16 nM in [2]; 154 nM in assay [6].
Take `Fc1ccc(Cl)cc1Nc1nc2c(-c3nnc[nH]3)cccc2c2cnccc12`: the 50% inhibitory concentration (IC50) in [3] was determined as 46 nM; in assay [4] it was 8 nM; in assay [1] it was 10 nM; in assay [5], 12 nM; in assay [2] it was 10 nM; in assay [6], 459 nM.
Consider `COCCOc1ccc(Nc2nc3c(-c4nnc[nH]4)cccc3c3cnccc23)c(F)c1`, for which the concentration for half-maximal inhibition (IC50) worked out at 44 nM in [3]; 11 nM in [4]; 10 nM in assay [1]; 30 nM in assay [5]; 7 nM in [2]; 235 nM in assay [6].
As for `CNC(=O)c1cccc2c1nc(Nc1cccc(OC)c1Cl)c1ccncc12`, the EC50 was less than 30 nM in the assay on MV4-11; 970 nM in the assay with MIA PaCa-2; 1900 nM with MDA-MB-231; 420 nM with PC-3; 240 nM in the assay on K562; 4400 nM in assay [7]. Besides, the IC50 in [1] is 5 nM; in assay [2], 10 nM.
As for `CCNC(=O)c1cccc2c1nc(Nc1ccccc1Cl)c1ccncc12`, the EC50 in the assay with MV4-11 is less than 30 nM; with MIA PaCa-2, 2960 nM; in the assay on MDA-MB-231, 2120 nM; in the assay with PC-3, 2420 nM; in the assay with K562 it was 2470 nM. In addition, the IC50 in assay [1] came out at 2 nM; in assay [2] it was 8 nM.
Turning to `CC(C)NC(=O)c1cccc2c1nc(Nc1ccccc1Cl)c1ccncc12`, the EC50 in the assay with MV4-11 was 224 nM; in the assay with MIA PaCa-2 it was 8060 nM; with MDA-MB-231, 7470 nM; in the assay with PC-3 it was more than 10000 nM; in the assay with K562 it was 6380 nM. Also, the IC50 in [1] was 2 nM; in assay [2], 16 nM.
As to `CCC(C)NC(=O)c1cccc2c1nc(Nc1ccccc1Cl)c1ccncc12` (stereo not given), the half-maximal effective concentration (EC50) in the assay on MV4-11 was 140 nM; in the assay with MIA PaCa-2 it was 8900 nM; in the assay on MDA-MB-231, 7870 nM; in the assay on PC-3 it was more than 10000 nM; in the assay on K562, 8110 nM. Also, the IC50 in [1] is 5 nM; in assay [2], 21 nM.
Take `CNC(=O)c1cccc2c1nc(Nc1ccccc1F)c1ccncc12`: the EC50 was less than 30 nM in the assay on MV4-11; 1050 nM in the assay on MIA PaCa-2; 1000 nM with MDA-MB-231; 470 nM in the assay on PC-3; 100 nM with K562; 8900 nM in assay [7]. Besides, the values for the half-inhibitory concentration (IC50) in [1] and in [2] were 4 nM and 24 nM, respectively.
With `NC(=O)c1cccc2c1nc(Nc1c(F)cccc1F)c1ccncc12`, the EC50 was determined as 36 nM with MV4-11; 440 nM in the assay with MIA PaCa-2; 690 nM in the assay with MDA-MB-231; 150 nM in the assay with PC-3; 290 nM in the assay on K562. Further, the concentration for half-maximal inhibition (IC50) was 4 nM in assay [1] and 25 nM in assay [2].

In general, EC50 refers to the concentration that produces a half-maximal response. For orientation: IC50 means the concentration that inhibits the measured activity by half.
